According to US11180462B2, “Microbiocidal oxadiazole derivatives” (SYNGENTA PARTICIPATIONS AG, priority 2015, dated 2021):

Legend:
[1] = test system: Glomerella lagenarium (Colletotrichum lagenarium); experiment: Fungicidal activity against Glomerella lagenarium (Colletotrichum lagenarium) liquid culture / cucumber / preventative (anthracnose); assay type: cell-based; conditions: Colletotrichum orbiculare; 20 ppm in the applied formulation; liquid culture (PDB), growth inhibition measured photometrically after 3 to 4 days; compared to untreated control; read-out: disease control
How it was run: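 Photometric read-out of fungal growth after 2–7 days, expressed as percent antifungal activity versus untreated check. Cryo-stored conidia in PDB; compound at 20 ppm; dark, 24 °C, 96% RH.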

[2] = test system: Puccinia recondita f. Sp. Tritici; experiment: Fungicidal activity against Puccinia recondita f. sp. tritici / wheat / leaf disc curative (brown rust); assay type: in vivo; conditions: foliar, 24 h, 200 ppm in the applied formulation, wheat leaf segments, curative (applied 1 day after inoculation), compared to untreated control leaf disks, read-out: disease control
Experimental: Leaf disks or leaf segments of various plant species are cut from plants grown in a greenhouse. The cut leaf disks or segments are placed in multiwell plates (24-well format) onto water agar. The leaf disks are sprayed with a test solution before (preventative) or after (curative) inoculation. Compounds to be tested are prepared as DMSO solutions (max. 10 mg/ml) which are diluted to the appropriate concentration with 0.025% Tween20 just before spraying. The inoculated leaf disks or segments are incubated under defined conditions (temperature, relative humidity, light, etc.) according to the respective test system. A single evaluation of disease level is carried out 3 to 14 days after inoculation, depending on the pathosystem. Percent disease control relative to the untreated check leaf disks or segments is then calculated.
Fungicidal Activity Against Puccinia recondita f. Sp. Tritici/Wheat/Leaf Disc Curative (Brown Rust)
Wheat leaf segments cv. Kanzler are placed on agar in multiwell plates (24-well format). The leaf segments are then inoculated with a spore suspension of the fungus. Plates were stored in darkness at 19° C. and 75% relative humidity. The formulated test compound diluted in water was applied 1 day after inoculation. The leaf segments were incubated at 19° C. and 75% relative humidity under a light regime of 12 hours light/12 hours darkness in a climate cabinet and the activity of a compound was assessed as percent disease control compared to untreated when an appropriate level of disease damage appears in untreated check leaf segments (6 to 8 days after application).
The following compounds at 200 ppm in the applied formulation give at least 80% disease control in this test when compared to untreated control leaf disks under the same conditions, which show extensive disease development.

[3] = test system: Puccinia recondita f. Sp. Tritici; experiment: Fungicidal activity against Puccinia recondita f. sp. tritici / wheat / leaf disc preventative (brown rust); assay type: in vivo; conditions: foliar, 200 ppm in the applied formulation, wheat leaf segments, preventative, compared to untreated control leaf disks, read-out: disease control
How it was run: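 Compound application precedes infection: segments of wheat cv. Kanzler, sprayed at 200 ppm, are inoculated with a spore suspension after 1 day. Incubation is at 19° C. with 75% relative humidity and 12 h light/12 h darkness, and control versus untreated leaves is rated 7 to 9 days post-application.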

## CCCON(Cc1ccc(-c2noc(C(F)(F)F)n2)cc1)C(=O)C1OCCO1 [Compound 1.317, N-propoxy-N-[[4-[5-(trifluoromethyl)-1,2,4-oxadiazol-3-yl]phenyl]methyl]-1,3-dioxolane-2-carboxamide]
[1]
  inhibition of growth at 20 ppm: ≥ 80%
[2]
  pest or weed control at 200 ppm: ≥ 80%

## O=C(C1CC1F)N(Cc1ccc(-c2noc(C(F)(F)F)n2)cc1)CC1CCCO1 (stereo not drawn) [Compound 1.445, 2-fluoro-N-(tetrahydrofuran-2-ylmethyl)-N-[[4-[5-(trifluoromethyl)-1,2,4-oxadiazol-3-yl]phenyl]methyl]-cyclopropane-carboxamide]
[1]
  inhibition of growth at 20 ppm: ≥ 80%
[2]
  pest or weed control at 200 ppm: ≥ 80%

## C#CCC(NS(=O)(=O)CC)C(=O)N(Cc1ccc(-c2noc(C(F)(F)F)n2)cc1)C1CC1 (stereo not drawn) [Compound 1.137, N-cyclopropyl-2-(ethylsulfonylamino)-N-[[4-[5-(trifluoromethyl)-1,2,4-oxadiazol-3-yl]phenyl]methyl]pent-4-ynamide]
[2]
  pest or weed control at 200 ppm: ≥ 80%

## CCCC(C)(C)C(=O)N(Cc1ccc(-c2noc(C(F)(F)F)n2)cc1)CC1CC1 [Compound 1.204, N-(cyclopropylmethyl)-2,2-dimethyl-N-[[4-[5-(trifluoromethyl)-1,2,4-oxadiazol-3-yl]phenyl]methyl]-pentanamide]
[2]
  pest or weed control at 200 ppm: ≥ 80%

## COCCN(Cc1ccc(-c2noc(C(F)(F)F)n2)cc1)C(=O)C1(F)CC1 [Compound 1.349, 1-fluoro-N-(2-methoxyethyl)-N-[[4-[5-(trifluoromethyl)-1,2,4-oxadiazol-3-yl]phenyl]methyl]-cyctopropane-carboxamide]
[1]
  inhibition of growth at 20 ppm: ≥ 80%
[2]
  pest or weed control at 200 ppm: ≥ 80%

## CC(=O)N1CCCC1C(=O)N(Cc1ccc(-c2noc(C(F)(F)F)n2)cc1)CC1CCCO1 (stereo not drawn) [Compound 1.444, 1-acetyl-N-(tetrahydrofuran-2-ylmethyl)-N-[[4-[5-(trifluoromethyl)-1,2,4-oxadiazol-3-yl]phenyl]methyl]-pyrrolidine-2-carboxamide]
[2]
  pest or weed control at 200 ppm: ≥ 80%

## C#CCN(Cc1ccc(-c2noc(C(F)(F)F)n2)cc1)C(=O)C(C)(C)CCC [Compound 1.153, 2,2-dimethyl-N-prop-2-ynyl-N-[[4-[5-(trifluoromethyl)-1,2,4-oxadiazol-3-yl]phenyl]methyl]-pentanamide]
[1]
  inhibition of growth at 20 ppm: ≥ 80%
[2]
  pest or weed control at 200 ppm: ≥ 80%

## O=C(C1CCCC1)N(Cc1ccc(-c2noc(C(F)(F)F)n2)cc1)Cc1ccco1 [Compound 1.455, N-(2-furylmethyl)-N-[[4-[5-(trifluoromethyl)-1,2,4-oxadiazol-3-yl]phenyl]methyl]-cyclopentane-carboxamide]
[1]
  inhibition of growth at 20 ppm: ≥ 80%
[2]
  pest or weed control at 200 ppm: ≥ 80%

## C=CCOC(=O)N(Cc1ccc(-c2noc(C(F)(F)F)n2)cc1)OC [Compound 2.11, allyl N-methoxy-N-[[4-[5-(trifluoromethyl)-1,2,4-oxadiazol-3-yl]phenyl]methyl]-carbamate]
[1]
  inhibition of growth at 20 ppm: ≥ 80%
[2]
  pest or weed control at 200 ppm: ≥ 80%

## O=C(CCCCC(F)(F)F)N(Cc1ccc(-c2noc(C(F)(F)F)n2)cc1)C1CC1 [Compound 1.131, N-cyclopropyl-6,6,6-trifluoro-N-[[4-[5-(trifluoromethyl)-1,2,4-oxadiazol-3-yl]phenyl]methyl]-hexanamide]
[1]
  inhibition of growth at 20 ppm: ≥ 80%
[2]
  pest or weed control at 200 ppm: ≥ 80%

## CCC(C)N(Cc1ccc(-c2noc(C(F)(F)F)n2)cc1)C(=O)C1=CCCC1 (stereo not drawn) [Compound 1.377, N-sec-butyl-N-[[4-[5-(trifluoromethyl)-1,2,4-oxadiazol-3-yl]phenyl]methyl]-cyclopentene-1-carboxamide]
[1]
  inhibition of growth at 20 ppm: ≥ 80%
[2]
  pest or weed control at 200 ppm: ≥ 80%

## CON(C(=O)C1=CCCC1)C(C)c1ccc(-c2noc(C(F)(F)F)n2)cc1 (stereo not drawn) [Compound 1.258, N-methoxy-N-[1-[4-[5-(trifluoromethyl)-1,2,4-oxadiazol-3-yl]phenyl]ethyl]-cyclopentene-1-carboxamide]
[3]
  pest or weed control at 200 ppm: ≥ 80%
[1]
  inhibition of growth at 20 ppm: ≥ 80%

## O=C(Cc1cccnc1)N(Cc1ccc(-c2noc(C(F)(F)F)n2)cc1)CC1CC1 [Compound 1.214, N-(cyclopropylmethyl)-2-(3-pyridyl)-N-[[4-[5-(trifluoromethyl)-1,2,4-oxadiazol-3-yl]phenyl]methyl]-acetamide]
[3]
  pest or weed control at 200 ppm: ≥ 80%
[1]
  inhibition of growth at 20 ppm: ≥ 80%

## CCC(C)N(Cc1ccc(-c2noc(C(F)(F)F)n2)cc1)C(=O)C1CCCC1 (stereo not drawn) [Compound 1.376, N-sec-butyl-N-[[4-[5-(trifluoromethyl)-1,2,4-oxadiazol-3-yl]phenyl]methyl]-cyclopentane-carboxamide]
[3]
  pest or weed control at 200 ppm: ≥ 80%
[1]
  inhibition of growth at 20 ppm: ≥ 80%

## C=CC(=O)N(Cc1ccc(-c2noc(C(F)(F)F)n2)cc1)CC1CCCO1 (stereo not drawn) [Compound 1.430, N-(tetrahydrofuran-2-ylmethyl)-N-[[4-[5-(trifluoromethyl)-1,2,4-oxadiazol-3-yl]phenyl]methyl]-prop-2-enamide]
[3]
  pest or weed control at 200 ppm: ≥ 80%
[1]
  inhibition of growth at 20 ppm: ≥ 80%

## O=C(C1CC1(F)F)N(Cc1ccc(-c2noc(C(F)(F)F)n2)cc1)Cc1ccco1 (stereo not drawn) [Compound 1.464, 2,2-difluoro-N-(2-furylmethyl)-N-[[4-[5-(trifluoromethyl)-1,2,4-oxadiazol-3-yl]phenyl]methyl]-cyclopropane-carboxamide]
[3]
  pest or weed control at 200 ppm: ≥ 80%
[1]
  inhibition of growth at 20 ppm: ≥ 80%

## COCCN(Cc1ccc(-c2noc(C(F)(F)F)n2)cc1)C(=O)C=CC(F)(F)F [Compound 1.338, 4,4,4-trifluoro-N-(2-methoxyethyl)-N-[[4-[5-(trifluoromethyl)-1,2,4-oxadiazol-3-yl]phenyl]methyl]but-2-enamide]
[3]
  pest or weed control at 200 ppm: ≥ 80%
[1]
  inhibition of growth at 20 ppm: ≥ 80%

## CON(Cc1ccc(-c2noc(C(F)(F)F)n2)cc1)C(=O)OCCF [Compound 2.15, 2-fluoroethyl N-methoxy-N-[[4-[5-(trifluoromethyl)-1,2,4-oxadiazol-3-yl]phenyl]methyl]-carbamate]
[1]
  inhibition of growth at 20 ppm: ≥ 80%
[2]
  pest or weed control at 200 ppm: ≥ 80%

## CCCON(Cc1ccc(-c2noc(C(F)(F)F)n2)cc1)C(C)=O [Compound 1.320, N-propoxy-N-[[4-[5-(trifluoromethyl)-1,2,4-oxadiazol-3-yl]phenyl]methyl]-acetamide]
[3]
  pest or weed control at 200 ppm: ≥ 80%
[1]
  inhibition of growth at 20 ppm: ≥ 80%

## CCN(Cc1ccc(-c2noc(C(F)(F)F)n2)cc1)C(=O)N(CC)CC1CC1 [Compound 3.100, 1-(cyclopropylmethyl)-1,3-diethyl-3-[[4-[5-(trifluoromethyl)-1,2,4-oxadiazol-3-yl]phenyl]methyl]urea]
[1]
  inhibition of growth at 20 ppm: ≥ 80%
[2]
  pest or weed control at 200 ppm: ≥ 80%

## CON(Cc1ccc(-c2noc(C(F)(F)F)n2)cc1)C(=O)c1cccc(C(F)(F)F)c1 [Compound 1.13, N-methoxy-3-(trifluoromethyl)-N-[[4-[5-(trifluoromethyl)-1,2,4-oxadiazol-3-yl]phenyl]methyl]-benzamide]
[1]
  inhibition of growth at 20 ppm: ≥ 80%
[2]
  pest or weed control at 200 ppm: ≥ 80%

## CON(Cc1ccc(-c2noc(C(F)(F)F)n2)cc1)C(=O)OCCCl [Compound 2.17, 2-chloroethyl N-methoxy-N-[[4-[5-(trifluoromethyl)-1,2,4-oxadiazol-3-yl]phenyl]methyl]-carbamate]
[1]
  inhibition of growth at 20 ppm: ≥ 80%
[2]
  pest or weed control at 200 ppm: ≥ 80%

## CON(Cc1ccc(-c2noc(C(F)(F)F)n2)cc1)C(=O)c1cccc2ccccc12 [Compound 1.37]
[1]
  inhibition of growth at 20 ppm: ≥ 80%
[2]
  pest or weed control at 200 ppm: ≥ 80%

## C#CCOC(=O)N(Cc1ccc(-c2noc(C(F)(F)F)n2)cc1)OC [Compound 2.20, prop-2-ynyl N-methoxy-N-[[4-[5-(trifluoromethyl)-1,2,4-oxadiazol-3-yl]phenyl]methyl]-carbamate]
[1]
  inhibition of growth at 20 ppm: ≥ 80%
[2]
  pest or weed control at 200 ppm: ≥ 80%

## C#CCN(Cc1ccc(-c2noc(C(F)(F)F)n2)cc1)C(=O)CC1CCCC1 [Compound 1.152, 2-cyclopentyl-N-prop-2-ynyl-N-[[4-[5-(trifluoromethyl)-1,2,4-oxadiazol-3-yl]phenyl]methyl]-acetamide]
[3]
  pest or weed control at 200 ppm: ≥ 80%
[1]
  inhibition of growth at 20 ppm: ≥ 80%

## C#CCN(Cc1ccc(-c2noc(C(F)(F)F)n2)cc1)C(=O)CCc1ccc(Cl)cc1 [Compound 1.160, 3-(4-chlorophenyl)-N-prop-2-ynyl-N-[[4-[5-(trifluoromethyl)-1,2,4-oxadiazol-3-yl]phenyl]methyl]-propanamide]
[2]
  pest or weed control at 200 ppm: ≥ 80%
